This passage reports IC50 and Kd results from ChEMBL document CHEMBL6078623, “Structural insights into small-molecule KRAS inhibitors for targeting KRAS mutant cancers” (Eur J Med Chem, 2024).

Assay [1] concerns the target GTPase KRas (Homo sapiens, UniProt P01116, G12C). As to the kind of experiment: Inhibition of KRAS G12C mutant in human NCI-H358 cells incubated for 24 hrs by Western blot analysis. Type of assay: cell-based. (In general: In western blotting, separated proteins are transferred to a membrane and probed.)
Another assay concerns MIA PaCa-2. The assay is described as follows: Antiproliferative activity against human MIA PaCa-2 cells assessed as reduction in cell viability. Type of assay: functional, cell-based.
Assay [2] concerns the target GTPase KRas (Homo sapiens, UniProt P01116, G12D). As to the kind of experiment: Binding affinity to KRAS G12D mutant (unknown origin) assessed as dissociation constant by SPR analysis.
The next assay has as its system DLD-1. As to the kind of experiment: Antiproliferative activity against human DLD-1 cells assessed as inhibition of cell growth incubated for 72 hrs by MTS assay. Type of assay: functional, cell-based. To be noted: DLD-1, 72 h.
The test system of a further assay is HT-1080. As to the kind of experiment: Cytotoxicity against human HT-1080 cells assessed as reduction in cell viability incubated for 48 hrs by MTT assay. Type of assay: functional, cell-based. To be noted: HT-1080, 48 h. A general note: Tetrazolium assays rely on reduction of a dye to a coloured formazan, in cell work by metabolically active cells.
A further assay has as its system NCI-H358. The assay is described as follows: Antiproliferative activity against human NCI-H358 cells assessed as reduction in cell viability. Type of assay: functional, cell-based.

GTPase KRas (Homo sapiens, UniProt P01116, G12C), sequence (P01116 whole entry G12C): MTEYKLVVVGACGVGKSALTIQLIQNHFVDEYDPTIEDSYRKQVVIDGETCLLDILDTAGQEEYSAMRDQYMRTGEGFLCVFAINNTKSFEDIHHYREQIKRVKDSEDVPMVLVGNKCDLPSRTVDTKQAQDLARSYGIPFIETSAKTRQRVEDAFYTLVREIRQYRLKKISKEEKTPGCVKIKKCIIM
GTPase KRas (Homo sapiens, UniProt P01116, G12D), sequence (P01116 whole entry G12D): as the sequence (P01116 whole entry G12C) above, with C12D counted along it

Take `NC1(C(=O)NCCCn2cc(-c3ccc(OC(F)(F)F)cc3)c3cc(CN4CCN(Cc5c(Cl)cccc5Cl)CC4)ccc32)CCNCC1`: the 50% inhibitory concentration (IC50) – broadly, the midpoint of a concentration-inhibition curve – at GTPase KRas [1] is 1000 nM.
The same measure, in the same setting: under `C=CC(=O)N1CCN2C(=O)Cc3cc(F)c(-c4ccc(F)c5sc(N)c(C#N)c45)c(Cl)c3OCC2C1` (stereo not drawn) stands 3.35 nM.
`C=CC(=O)N1CCN(c2nc(=O)n(-c3c(C)ccnc3C(C)C)c3nc(-c4c(O)cccc4F)c(F)cc23)[C@@H](C)C1` [SOTORASIB]: the IC50 in the assay with MIA PaCa-2 stood at 100 nM.
For `COc1nc(-c2cccc3c2OCCO3)ccc1Nc1ccc(CN(C)C)cc1`, the Kd (in general, the equilibrium constant for the complex coming apart) on GTPase KRas [2] is 51 nM. Moreover, the IC50 with DLD-1 came to 8000 nM; in the assay on HT-1080 it was 10000 nM.
Consider `C=CC(=O)N1CC2(CC(n3nc(-c4ccc5c(cnn5C)c4)c(-c4c(Cl)c(C)cc5[nH]ncc45)c3C)C2)C1` [OPNURASIB], for which the IC50 in the assay on NCI-H358 was 18 nM; against GTPase KRas [1] it was 10 nM.
